Data published in patent US8129417B2, “Substituted octahydrocyclopenta[C]pyrrol-4-amines as calcium channel blockers” (Abbott Laboratories, priority 2008, dated 2012).

Biological target: human Cav2.2 (Homo sapiens, UniProt Q00975)
Experiment: Assessment of calcium channel activity using FLIPR (Ca2+ influx in IMR32 cells)
Assay type: cell-based
Details: 60 minute pre-incubation with compound, 2 μM nifedipine, depolarized with 80 mM KCl
Method in brief: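 IMR32 neuroblastoma cells seeded at 1-1.2×10^5 cells/well and grown 48 h at 37 °C before FLIPR Ca2+ influx read. Percent inhibition at each concentration vs no-inhibitor activity; IC50 by non-linear sigmoidal dose-response fit.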

human Cav2.2, sequence (Q00975 whole entry): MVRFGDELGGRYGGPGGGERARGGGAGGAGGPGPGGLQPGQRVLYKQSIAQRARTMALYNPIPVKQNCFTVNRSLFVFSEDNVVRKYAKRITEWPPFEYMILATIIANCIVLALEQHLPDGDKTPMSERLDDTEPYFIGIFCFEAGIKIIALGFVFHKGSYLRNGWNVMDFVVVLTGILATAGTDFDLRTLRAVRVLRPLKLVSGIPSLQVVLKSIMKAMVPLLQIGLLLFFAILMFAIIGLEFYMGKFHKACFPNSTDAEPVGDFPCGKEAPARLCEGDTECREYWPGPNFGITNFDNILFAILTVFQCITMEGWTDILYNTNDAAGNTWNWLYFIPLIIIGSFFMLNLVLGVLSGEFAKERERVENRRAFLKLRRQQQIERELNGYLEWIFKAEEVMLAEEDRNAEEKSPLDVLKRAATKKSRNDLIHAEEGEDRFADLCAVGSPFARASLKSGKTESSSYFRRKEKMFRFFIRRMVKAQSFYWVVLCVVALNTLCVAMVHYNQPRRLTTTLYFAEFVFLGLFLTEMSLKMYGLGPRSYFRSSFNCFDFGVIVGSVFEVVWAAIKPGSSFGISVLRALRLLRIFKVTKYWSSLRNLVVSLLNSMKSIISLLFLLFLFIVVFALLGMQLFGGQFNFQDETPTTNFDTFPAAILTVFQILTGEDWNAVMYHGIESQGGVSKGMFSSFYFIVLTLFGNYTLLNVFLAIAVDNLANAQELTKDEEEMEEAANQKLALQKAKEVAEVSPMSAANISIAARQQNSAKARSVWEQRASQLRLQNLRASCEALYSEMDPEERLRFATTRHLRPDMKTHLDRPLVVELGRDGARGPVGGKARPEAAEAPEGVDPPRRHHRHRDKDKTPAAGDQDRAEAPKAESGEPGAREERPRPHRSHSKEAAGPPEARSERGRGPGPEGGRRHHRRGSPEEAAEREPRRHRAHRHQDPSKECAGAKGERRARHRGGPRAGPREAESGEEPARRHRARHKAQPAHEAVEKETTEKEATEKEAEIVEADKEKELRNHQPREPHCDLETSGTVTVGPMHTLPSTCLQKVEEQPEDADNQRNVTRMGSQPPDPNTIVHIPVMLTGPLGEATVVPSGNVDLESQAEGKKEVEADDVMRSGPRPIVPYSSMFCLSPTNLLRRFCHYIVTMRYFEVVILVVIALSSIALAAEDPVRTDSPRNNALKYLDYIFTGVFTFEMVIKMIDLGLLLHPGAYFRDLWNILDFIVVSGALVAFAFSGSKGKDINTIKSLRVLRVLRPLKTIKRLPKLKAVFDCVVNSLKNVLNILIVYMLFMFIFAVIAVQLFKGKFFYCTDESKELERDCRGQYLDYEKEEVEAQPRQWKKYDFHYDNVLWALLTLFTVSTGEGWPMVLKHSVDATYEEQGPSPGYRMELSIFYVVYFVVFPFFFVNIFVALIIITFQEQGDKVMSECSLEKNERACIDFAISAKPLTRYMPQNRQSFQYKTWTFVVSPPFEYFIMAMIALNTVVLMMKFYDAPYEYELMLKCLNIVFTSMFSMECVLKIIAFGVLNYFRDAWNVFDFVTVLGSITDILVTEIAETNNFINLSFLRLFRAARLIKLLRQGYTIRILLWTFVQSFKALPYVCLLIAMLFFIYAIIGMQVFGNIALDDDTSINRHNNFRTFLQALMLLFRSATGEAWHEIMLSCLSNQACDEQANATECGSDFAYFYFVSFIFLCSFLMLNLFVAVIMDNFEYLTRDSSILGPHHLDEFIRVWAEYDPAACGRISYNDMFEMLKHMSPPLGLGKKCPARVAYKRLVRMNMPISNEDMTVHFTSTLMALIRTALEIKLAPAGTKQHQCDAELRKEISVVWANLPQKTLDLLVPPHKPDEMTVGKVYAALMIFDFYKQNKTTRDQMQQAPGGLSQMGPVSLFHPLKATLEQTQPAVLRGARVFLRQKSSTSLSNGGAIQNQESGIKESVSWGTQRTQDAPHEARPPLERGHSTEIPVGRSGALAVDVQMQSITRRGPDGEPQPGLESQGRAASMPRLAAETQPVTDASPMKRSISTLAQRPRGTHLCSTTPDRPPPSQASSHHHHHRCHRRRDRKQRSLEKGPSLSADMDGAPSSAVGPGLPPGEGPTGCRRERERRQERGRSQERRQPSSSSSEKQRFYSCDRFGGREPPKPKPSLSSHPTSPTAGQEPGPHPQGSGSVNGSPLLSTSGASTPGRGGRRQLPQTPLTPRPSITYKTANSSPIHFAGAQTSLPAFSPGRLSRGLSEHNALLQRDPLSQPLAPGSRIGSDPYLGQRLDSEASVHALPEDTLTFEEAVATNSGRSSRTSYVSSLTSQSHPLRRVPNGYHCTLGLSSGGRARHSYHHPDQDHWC
human Cav2.2, sequence (P54289 25-946 partner limits assumed): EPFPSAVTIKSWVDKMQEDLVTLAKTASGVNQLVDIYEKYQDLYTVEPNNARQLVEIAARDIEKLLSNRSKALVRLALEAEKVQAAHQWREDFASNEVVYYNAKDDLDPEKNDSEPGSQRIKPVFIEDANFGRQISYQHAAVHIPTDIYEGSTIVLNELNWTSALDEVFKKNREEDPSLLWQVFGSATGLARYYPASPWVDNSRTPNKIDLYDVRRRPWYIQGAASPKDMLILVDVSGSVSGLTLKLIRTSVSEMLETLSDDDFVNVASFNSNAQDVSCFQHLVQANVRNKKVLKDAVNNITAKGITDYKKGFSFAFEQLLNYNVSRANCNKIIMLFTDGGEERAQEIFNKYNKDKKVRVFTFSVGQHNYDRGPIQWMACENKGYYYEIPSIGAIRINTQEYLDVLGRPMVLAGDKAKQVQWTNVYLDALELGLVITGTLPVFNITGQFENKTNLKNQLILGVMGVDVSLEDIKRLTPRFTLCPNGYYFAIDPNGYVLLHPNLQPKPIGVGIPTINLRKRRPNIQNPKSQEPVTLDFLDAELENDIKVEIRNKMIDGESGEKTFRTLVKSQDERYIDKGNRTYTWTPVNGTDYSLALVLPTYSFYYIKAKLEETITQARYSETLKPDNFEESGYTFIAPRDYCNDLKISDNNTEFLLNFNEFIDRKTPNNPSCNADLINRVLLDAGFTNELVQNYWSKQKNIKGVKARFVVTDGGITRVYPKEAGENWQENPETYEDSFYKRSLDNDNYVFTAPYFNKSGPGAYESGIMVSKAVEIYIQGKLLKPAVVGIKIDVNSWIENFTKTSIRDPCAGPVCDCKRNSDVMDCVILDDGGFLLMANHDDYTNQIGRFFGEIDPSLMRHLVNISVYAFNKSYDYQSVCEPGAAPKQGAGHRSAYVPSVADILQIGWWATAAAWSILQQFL
human Cav2.2, sequence (P54289 947-1103 partner limits assumed): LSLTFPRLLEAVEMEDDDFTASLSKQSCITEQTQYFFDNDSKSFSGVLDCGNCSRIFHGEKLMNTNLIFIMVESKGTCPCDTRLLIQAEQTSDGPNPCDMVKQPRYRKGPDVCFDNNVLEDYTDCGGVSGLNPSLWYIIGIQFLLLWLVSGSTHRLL
human Cav2.2, sequence (P54284 whole entry partner): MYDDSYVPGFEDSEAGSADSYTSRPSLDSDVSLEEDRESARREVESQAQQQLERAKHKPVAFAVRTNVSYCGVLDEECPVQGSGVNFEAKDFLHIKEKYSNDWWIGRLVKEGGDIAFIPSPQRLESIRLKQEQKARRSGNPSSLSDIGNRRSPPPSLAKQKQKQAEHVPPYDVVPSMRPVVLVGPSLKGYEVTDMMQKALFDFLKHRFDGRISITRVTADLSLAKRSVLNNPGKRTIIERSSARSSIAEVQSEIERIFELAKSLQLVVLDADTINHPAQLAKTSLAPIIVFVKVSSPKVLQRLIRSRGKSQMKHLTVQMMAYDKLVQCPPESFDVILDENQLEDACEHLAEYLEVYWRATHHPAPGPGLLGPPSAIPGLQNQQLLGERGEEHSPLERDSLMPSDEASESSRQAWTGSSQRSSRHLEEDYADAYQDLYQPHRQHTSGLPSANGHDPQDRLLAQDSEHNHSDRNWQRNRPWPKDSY

Structure (SMILES) | IC50 [nM]
CC(C)(C)OC(=O)N1CCC[C@H]1C(=O)N[C@@H]1CC[C@H]2CN(S(=O)(=O)c3cccc(C(F)(F)F)c3)C[C@H]21 [Example 266, (S)-tert-butyl 2-((3aS,4R,6aR)-2-(3-(trifluoromethyl)phenylsulfonyl)octahydrocyclopenta[c]pyrrol-4-ylcarbamoyl)pyrrolidine-1-carboxylate] | 870
CC(C)(C)OC(=O)N1CCCC[C@H]1C(=O)N[C@@H]1CC[C@H]2CN(S(=O)(=O)c3cccc(C(F)(F)F)c3)C[C@H]21 [Example 268, tert-butyl(2S)-2-{[((3aS,4R,6aR)-2-{[3-(trifluoromethyl)phenyl]sulfonyl}octahydrocyclopenta[c]pyrrol-4-yl)amino]carbonyl}piperidine-1-carboxylate] | 730
CN(C(=O)OC(C)(C)C)C(Cc1ccccc1)C(=O)NC1CCC2CN(S(=O)(=O)c3cccc(C(F)(F)F)c3)CC21 [Example 270, N-(tert-butoxycarbonyl)-N-methyl-N-((3aR,4S,6aS)-2-{[3-(trifluoromethyl)phenyl]sulfonyl}octahydrocyclopenta[c]pyrrol-4-yl)-L-phenylalaninamide] | 770
CC(C)(C)OC(=O)N1CCC[C@H]1C(=O)N[C@H]1CC[C@@H]2CN(S(=O)(=O)c3cccc(C(F)(F)F)c3)C[C@@H]21 [Example 271, (S)-tert-butyl 2-((3aR,4S,6aS)-2-(3-(trifluoromethyl)phenylsulfonyl)octahydrocyclopenta[c]pyrrol-4-ylcarbamoyl)pyrrolidine-1-carboxylate] | 3410
CC(C)[C@@H](CC(=O)N[C@H]1CC[C@@H]2CN(S(=O)(=O)c3cccc(C(F)(F)F)c3)C[C@@H]21)NC(=O)OC(C)(C)C [Example 272, tert-butyl(1R)-1-isopropyl-3-oxo-[((3aR,4S,6aS)-2-{[3-(trifluoromethyl)phenyl]sulfonyl}octahydrocyclopenta[c]pyrrol-4-yl)amino]propylcarbamate] | 5140
CC(C)[C@@H](C(=O)N[C@H]1CC[C@@H]2CN(S(=O)(=O)c3cccc(C(F)(F)F)c3)C[C@@H]21)N(C)C(=O)OC(C)(C)C [Example 273, tert-butyl methyl((S)-3-methyl-1-oxo-1-((3aR,4S,6aS)-2-(3-(trifluoromethyl)phenylsulfonyl)octahydrocyclopenta[c]pyrrol-4-ylamino)butan-2-yl)carbamate] | 180
CC(C)(C)OC(=O)N1CCCC[C@H]1C(=O)N[C@H]1CC[C@@H]2CN(S(=O)(=O)c3cccc(C(F)(F)F)c3)C[C@@H]21 [Example 274, tert-butyl(2S)-2-{[((3aR,4S,6aS)-2-{[3-(trifluoromethyl)phenyl]sulfonyl}octahydrocyclopenta[c]pyrrol-4-yl)amino]carbonyl}piperidine-1-carboxylate] | 1380
CC(C)(C)OC(=O)N1Cc2ccccc2C[C@H]1C(=O)N[C@H]1CC[C@@H]2CN(S(=O)(=O)c3cccc(C(F)(F)F)c3)C[C@@H]21 [Example 275, tert-butyl(3S)-3-{[((3aR,4S,6aS)-2-{[3-(trifluoromethyl)phenyl]sulfonyl}octahydrocyclopenta[c]pyrrol-4-yl)amino]carbonyl}-3,4-dihydroisoquinoline-2(1H)-carboxylate] | 920
CC(C)(C)C[C@H](NC(=O)OC(C)(C)C)C(=O)N[C@H]1CC[C@@H]2CN(S(=O)(=O)c3cccc(C(F)(F)F)c3)C[C@@H]21 [Example 276, tert-butyl(S)-4,4-dimethyl-1-oxo-1-((3aR,4S,6aS)-2-(3-(trifluoromethyl)phenylsulfonyl)octahydrocyclopenta[c]pyrrol-4-ylamino)pentan-2-ylcarbamate] | 380
CCCC[C@@H](C(=O)N[C@H]1CC[C@@H]2CN(S(=O)(=O)c3cccc(C(F)(F)F)c3)C[C@@H]21)N(C)C(=O)OC(C)(C)C [Example 277, tert-butyl methyl((S)-1-oxo-1-((3aR,4S,6aS)-2-(3-(trifluoromethyl)phenylsulfonyl)octahydrocyclopenta[c]pyrrol-4-ylamino)hexan-2-yl)carbamate] | 720
